Test results taken from ChEMBL document CHEMBL1201862, “PubChem BioAssay data set” (2004).
Calls of active or inactive are those of the source.

What was measured:
[1] = molecular target: NAD-dependent protein deacylase sirtuin-5, mitochondrial (Homo sapiens, UniProt Q9NXA8); test: SIRT5 desuccinylase inhibitors, dose response, biochemical, fluorescence imaging, cherry-pick, set 5 (AID 720591);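 further: desuccinylation of succinyl peptide AMC substrate read as fluorescence after trypsin release; potency of inhibitors that lower fluorescence and may act on trypsin instead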
Mu-type opioid receptor = Mu-type opioid receptor (Homo sapiens, UniProt P35372); assay type: functional, cell-based;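 further: U2OS cells with beta-arrestin recruitment to OPRM1 by beta-gal complementation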
[2] = molecular target: 5-hydroxytryptamine receptor 2A (Mus musculus, UniProt P35363); assay type: functional, cell-based;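 further: CHO-K1 cells with tagged receptor and beta-arrestin; agonist potency measured as compound-induced activation of the receptor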
[3] = system: Streptococcus sp. 'group A'; test: growth inhibition of control SK(-) GAS strain, dose response, counter-screen for streptokinase expression inhibitor project, luminescence, kanamycin, BacTiterGlo, confirmation (AID 1900); assay type: functional, organism-based
Streptokinase A = molecular target: T1, Streptokinase A (Streptococcus pyogenes serotype M1, UniProt P10520); test: S. pyogenes streptokinase expression inhibitors, potency, dose response, plasminogen activation absorbance, OD405 (AID 1914); assay type: functional, Streptococcus pyogenes M1 GAS;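 further: secreted streptokinase activity via plasminogen activation per viability signal from cell pellet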
T1 sequence (P10520 whole entry): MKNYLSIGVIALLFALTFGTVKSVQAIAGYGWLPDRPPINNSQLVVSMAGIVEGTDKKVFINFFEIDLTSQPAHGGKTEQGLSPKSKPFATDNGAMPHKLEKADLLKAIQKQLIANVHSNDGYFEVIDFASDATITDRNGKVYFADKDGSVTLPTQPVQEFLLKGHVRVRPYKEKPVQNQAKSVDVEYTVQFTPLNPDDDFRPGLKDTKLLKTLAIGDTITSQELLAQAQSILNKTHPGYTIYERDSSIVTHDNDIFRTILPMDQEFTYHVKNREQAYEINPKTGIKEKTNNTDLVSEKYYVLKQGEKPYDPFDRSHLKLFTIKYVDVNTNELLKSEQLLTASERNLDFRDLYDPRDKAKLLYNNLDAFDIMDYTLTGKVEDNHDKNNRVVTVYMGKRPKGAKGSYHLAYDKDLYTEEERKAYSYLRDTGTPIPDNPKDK

Streptococcus = test: Group A Streptococcus viability loss, dose response, counter-screen for streptokinase expression inhibitor project, luminescence, BacTiterGlo (AID 1915); assay type: functional, organism-based;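 further: potency for reduction of bacterial viability or growth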
[4] = inhibitors of HIV Env-driven cell fusion, dose response, cherry-pick (AID 652057); assay type: functional, cell-based
[5] = CEM21 lymphoblast cell cytotoxicity, dose response, cytotoxicity control for viral fusion inhibitor project, CellTiter-Glo luminescence, cherry-picked (AID 652042); assay type: functional, cell-based;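 further: potency for signal decrease meaning cytotoxicity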
[6] = off-target signal loss in HeLa-CEM21 co-culture – HeLa F-luc CTL cells, cherry-picked, counter-screen for HIV-1 Env fusion inhibitor project, dose response (AID 652040); assay type: functional, cell-based;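 further: potency for signal decrease marking cytotoxic or nonspecific inhibition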
[7] = molecular target: T2, Long-chain-fatty-acid--AMP ligase FadD28 (Mycobacterium tuberculosis, UniProt P9WQ59); test: Fluorescence polarization aasay to screen for inhibitors that compete for the binding of FadD28 to a bisubstrate Measured in Biochemical System Using Plate Reader - 2147-01_Inhibitor_Dose_CherryPick_Activity.; assay type: functional, Mycobacterium tuberculosis H37Rv
T2 sequence (P9WQ59 whole entry): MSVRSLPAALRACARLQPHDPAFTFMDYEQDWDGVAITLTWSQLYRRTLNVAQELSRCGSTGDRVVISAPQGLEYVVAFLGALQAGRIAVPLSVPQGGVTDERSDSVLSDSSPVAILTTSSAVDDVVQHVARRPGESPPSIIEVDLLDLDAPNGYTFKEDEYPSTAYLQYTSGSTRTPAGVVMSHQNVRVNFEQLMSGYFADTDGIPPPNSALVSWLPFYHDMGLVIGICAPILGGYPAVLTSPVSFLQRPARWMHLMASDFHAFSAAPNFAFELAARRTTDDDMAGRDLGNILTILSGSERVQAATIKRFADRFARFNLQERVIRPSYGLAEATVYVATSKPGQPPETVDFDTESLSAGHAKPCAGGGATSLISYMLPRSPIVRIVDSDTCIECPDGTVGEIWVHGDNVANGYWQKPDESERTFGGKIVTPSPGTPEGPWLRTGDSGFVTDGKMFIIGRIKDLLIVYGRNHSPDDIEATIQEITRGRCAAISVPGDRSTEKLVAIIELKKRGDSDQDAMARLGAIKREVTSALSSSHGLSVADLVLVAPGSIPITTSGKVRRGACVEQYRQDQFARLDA

[8] = microbe, parasite or virus in culture; assay type: functional; conditions: Mycobacterium tuberculosis
[9] = ZM109 Env clade C HIV-1 fusion inhibitors, dose response, HeLa effector, CEM target cells, luciferase, cherry-pick (AID 652058); assay type: functional, cell-based
[10] = inhibitors of clade B AD8 Env fusion, dose response, cell-based, cherry-pick (AID 652062); assay type: functional;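 further: luciferase signal from cell-cell fusion driven by HIV-1 clade B AD8 Env; potency is for inhibitors of fusion seen as a drop in luminescence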

Mu-type opioid receptor, sequence (P35372 whole entry): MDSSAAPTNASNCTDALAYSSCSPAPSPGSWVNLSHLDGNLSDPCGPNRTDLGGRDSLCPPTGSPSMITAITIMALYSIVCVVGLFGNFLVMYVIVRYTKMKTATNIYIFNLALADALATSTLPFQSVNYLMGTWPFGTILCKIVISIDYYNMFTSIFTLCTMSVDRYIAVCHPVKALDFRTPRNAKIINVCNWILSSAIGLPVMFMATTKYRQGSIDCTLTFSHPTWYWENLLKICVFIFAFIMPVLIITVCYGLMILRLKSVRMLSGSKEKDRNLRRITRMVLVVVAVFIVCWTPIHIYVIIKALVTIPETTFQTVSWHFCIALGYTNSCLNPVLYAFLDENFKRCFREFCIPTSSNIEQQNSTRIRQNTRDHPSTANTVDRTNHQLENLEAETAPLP
NAD-dependent protein deacylase sirtuin-5, mitochondrial, sequence (Q9NXA8 whole entry): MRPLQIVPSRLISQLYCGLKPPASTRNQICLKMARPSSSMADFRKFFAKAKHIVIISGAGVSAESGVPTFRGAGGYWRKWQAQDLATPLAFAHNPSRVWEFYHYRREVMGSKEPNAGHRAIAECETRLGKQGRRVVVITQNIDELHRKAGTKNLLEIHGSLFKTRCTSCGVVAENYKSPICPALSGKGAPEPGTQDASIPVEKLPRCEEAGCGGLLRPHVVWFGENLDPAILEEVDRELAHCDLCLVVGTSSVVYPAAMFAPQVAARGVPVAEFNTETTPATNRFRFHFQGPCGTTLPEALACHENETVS
5-hydroxytryptamine receptor 2A, sequence (P35363 whole entry): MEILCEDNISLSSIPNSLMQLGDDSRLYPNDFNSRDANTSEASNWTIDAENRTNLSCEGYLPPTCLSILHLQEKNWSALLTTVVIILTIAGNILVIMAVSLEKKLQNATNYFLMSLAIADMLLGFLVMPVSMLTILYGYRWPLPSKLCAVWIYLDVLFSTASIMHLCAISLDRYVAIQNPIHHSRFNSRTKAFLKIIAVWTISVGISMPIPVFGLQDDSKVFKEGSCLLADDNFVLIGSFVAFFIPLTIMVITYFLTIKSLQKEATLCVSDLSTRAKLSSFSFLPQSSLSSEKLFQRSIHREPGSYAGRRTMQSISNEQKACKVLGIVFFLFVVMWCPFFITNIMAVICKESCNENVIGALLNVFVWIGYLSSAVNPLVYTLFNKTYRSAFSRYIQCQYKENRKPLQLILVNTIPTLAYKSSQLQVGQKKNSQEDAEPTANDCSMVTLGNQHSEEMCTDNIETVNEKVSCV

COc1cccc(NC(=O)CN(C)CC(=O)Nc2ccc3c(c2)CCC3)c1
AC50 [1]: > 30 µM (inactive)

O=C(CN1CCN(c2ccccn2)CC1)Nc1cccc(S(=O)(=O)N2CCCC2)c1
EC50 (Mu-type opioid receptor): 92.5 µM (inactive)
EC50 [2]: 9.85 µM (active)

OC(COCc1ccc(Cl)cc1)CN1CCN(c2ccccn2)CC1 (centres undefined)
EC50 (Mu-type opioid receptor): 92.5 µM (inactive)
EC50 [2]: 0.819 µM (active)

Cc1ccc(C2Oc3ccccc3C3=C2C(c2cccs2)n2ncnc2N3)cc1 (centres undefined)
EC50 [3]: 2.7 µM (active)
EC50 (Streptokinase A): > 150 µM (not active)
EC50 (Streptococcus): 7.1 µM (active)
AC50 [4]: 9.29 µM (active)
AC50 [5]: 31.7 µM (active)
AC50 [6]: 14.1 µM (active)

Brc1cccc(CN2CCN(c3ncccn3)CC2)c1
EC50 (Mu-type opioid receptor): 92.5 µM (inactive)
EC50 [2]: 0.352 µM (active)

O=C(c1ccco1)N1CCN(Cc2ccc(Cl)cc2)CC1
EC50 (Mu-type opioid receptor): 92.5 µM (inactive)
EC50 [2]: 4.08 µM (active)

COc1ccc(NC(=O)N[C@@H](CCSC)C(=O)O)cc1OC
AC50 [1]: > 30 µM (inactive)

Cc1ccc(C2CC(=O)N3CN(Cc4ccco4)CSC3=C2C#N)cc1 (centres undefined)
AC50 [7]: 82.5 µM (active)

Cc1[nH]c2ccc(OC(F)(F)F)cc2c1CCNCc1ccc(Cl)cc1
CC50 [8]: 12.6 µM (active)
AC50 [4]: 0.838 µM (active)
AC50 [5]: 9.56 µM (active)
AC50 [9]: 1.24 µM (active)
AC50 [6]: 1.71 µM (active)
AC50 [10]: 5.12 µM (active)

O=C(Cn1c(=O)oc2ccccc21)Nc1cccc(Cl)c1
AC50 [1]: > 30 µM (inactive)
